Patent US5928933A, “Process for the enzymatic resolution of N-(alkoxycarbonyl)-4-ketoproline alkyl esters or N-(alkoxycarbonyl)-4-hydroxyproline alkyl esters using Candida antarctica lipase B” (priority 1998, dated 1999)
Read-outs that look alike come from different tables or passages of the source.

What was measured:
Assay type in all cases: biochemical
[1] = biological target: T1, Candida antartica lipase fraction B (CALB) (Moesziomyces antarcticus, UniProt P41365); details: for resolution with high enantioselectivity: CALB or any of the other commercially-available esterases, lipases, and proteases screened (Examples 7, 8); for isomer remaining: candida antartica lipase b, 19000 µM, pH 5
T1 construct: purchased Boehringer Mannheim CHIRAZYME L-2
T1 sequence (P41365 26-342): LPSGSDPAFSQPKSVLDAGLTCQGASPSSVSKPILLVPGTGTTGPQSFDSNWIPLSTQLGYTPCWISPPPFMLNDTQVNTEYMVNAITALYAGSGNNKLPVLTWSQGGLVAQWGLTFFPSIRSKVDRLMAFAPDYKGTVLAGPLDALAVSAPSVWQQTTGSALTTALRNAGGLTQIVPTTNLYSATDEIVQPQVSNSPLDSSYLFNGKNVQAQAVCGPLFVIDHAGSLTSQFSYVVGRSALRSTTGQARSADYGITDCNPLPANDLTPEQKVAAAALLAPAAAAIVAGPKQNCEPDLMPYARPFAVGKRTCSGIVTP
Method: Reacting a 0.10M solution of the 1:1 mixture of KDP(MEMC) and KLP(MEMC) in 0.20M succinate (pH 6.0) at 25° C. for 5 h with approximately 1-3 mg/mL of Candida antartica lipase fraction B (CALB) produced a 95% ee (substrate) of KDP(MEMC) at 51% conversion. […] The calculated enantioselectivity (E) at 51% conversion was E=81.
The enzymatic hydrolysis reaction of KDP(MEMC) and KLP(MEMC) using CALB (described above) was repeated at pH 5.0 in 0.20M acetate buffer (Example 2), and a 100% ee (substrate) of the D-isomer was obtained at 51% conversion (E=>1000); the reaction rate was approximately 50% of the rate at pH 6.0, and the slight loss of the D-isomer at pH 5.0 was again observed in the absence of added enzyme (95% recovery at pH 5.0 after 24 h with no enzyme).
The procedure described in Example I was repeated using Candida antartica lipase fraction B (CALB), except that the reaction was run in 0.200M sodium cetate (pH 5.0) instead of the 0.20M sodium succinate buffer (pH 6.0) used for Candida antartica lipase fraction B in Example 1. Aqueous solutions (5.0 mL) containing varying concentrations of a racemic mixture of N-(methoxycarbonyl)-4-keto-D,L-proline methyl ester and CALB were mixed at 15° C., 25° C., 35° C. or 45° C.
An aqueous solution (5.0 mL) containing 25 mM N-(methoxycarbonyl)-4-keto-Dproline methyl ester and 25 mM N-(methoxycarbonyl)-4-keto-L-proline methyl ester in 0.200M sodium acetate (pH 5.0) was mixed with 2.5 g of immobilized Candida antartica lipase fraction B (Boehringer Mannheim, CHIRAZYME® L-2, c.-f., C2, lyo.) at 25° C. […] The dichloromethane extract was then analyzed by chiral gas chromatography on a Chiraldex G-TA column (Advanced Separation Technologies, Inc., 50 m×0.32 mm ID) to determine the amounts of the unreacted D- and L-isomers. After 31 h, an 85% enantiomeric excess of N-(methoxycarbonyl)-4-keto-D-proline methyl ester was obtained at 41% conversion of the racemic mixture.
A 200 mL aqueous solution containing 0.200M sodium acetate (pH 5.0), 1.3325 g of Candida antartica lipase fraction B, and 4.02 g of racemic N-(methoxycarbonyl)-4-keto-D,L-proline methyl ester (100 mM) was stirred at 25° C. After 24 h, an 96% enantiomeric excess of N-(methoxycarbonyl)-4-keto-D-proline methyl ester was obtained at 50% conversion of the racemic mixture. The reaction mixture was filtered using a 10,000 MWCO membrane filter (Amicon) to remove the enzyme catalyst, and the filtrate extracted with three 200 mL portions of dichloromethane. The combined organic extracts were dried over magnesium sulfate, filtered, and the dichloromethane removed from the filtrate by rotary evaporation at reduced pressure. Residual dichloromethane was removed from the resulting colorless oil at high vacuum (50 millitorr) to produce N-(methoxycarbonyl)-4-keto-D-proline methyl ester as a white solid (1.99 g, 99% isolated yield, 99% purity (by GC), 97% ee).
An aqueous solution (2.0 mL) containing 50 mM N-(ethoxycarbonyl)-4-keto-D-proline ethyl ester and 50 mM N-(ethoxycarbonyl)-4-keto-L-proline ethyl ester in 0.200M sodium acetate (pH 5.0) and 30 mg/mL of Candida antartica lipase fraction B was mixed at 25° C. […] The dichloromethane extract was then analyzed by chiral gas chromatography on a Chiraldex G-TA column (Advanced Separation Technologies, Inc., 50 m×0.32 mm ID) to determine the amounts of the unreacted D- and L-isomers. After 24 h, a 100% enantiomeric excess of N-(ethoxycarbonyl)-4-keto-D-proline ethyl ester was obtained at 51% conversion of the racemic mixture.
An aqueous solution (1.0 mL) containing 19 mM of N-(2-phenylacetyl)-4-keto-D-proline methyl ester and 19 mM of N-(2-phenylacetyl)-4-keto-L-proline methyl ester in 0.200M sodium acetate (pH 5.0) and 25 mg/mL of Candida antartica lipase fraction B was mixed at 25° C. […]

[2] = Enzyme screens for resolution of racemic N-(methoxycarbonyl)-4-keto-D,L-proline methyl ester (Example 1); details: 0.100M racemate, 5.0 to 50 mg/mL enzyme, 25° C., optimum
Method: An aqueous solution (1.0 mL) containing 0.100M racemic N-(methoxycarbonyl)-4-keto-D,L-proline methyl ester in either 0.20M sodium succinate (pH 6.0) or 0.20M sodium acetate (pH 5.0) was mixed with 5.0 to 50 mg/mL of commercial enzyme preparations (listed in the table below) at 25° C. […] The dichloromethane extract was then analyzed by chiral gas chromatography on a Chiraldex G-TA column (Advanced Separation Technologies, Inc., 50 m×0.32 mm ID) to determine the percent conversion of the racemate, and the enantiomeric excess of the N-(methoxycarbonyl)-4-keto-D-proline methyl ester.

[3] = Enzyme screens for resolution of diastereomeric mixture CHDP(MEMC)/THLP(MEMC) (Example 9); details: 0.050M each isomer, 5 h or 24 h, 5.0 to 50 mg/mL enzyme, 25° C.
Method: (§1) An aqueous solution (1.0 mL) containing 0.050M N-(methoxycarbonyl)-trans-4-hydroxy-L-proline methyl ester and 0.050M N-(methoxycarbonyl)-cis-4-hydroxy-D-proline methyl ester in 0.100M potassium phosphate (pH 7.0) was mixed with 5.0 to 50 mg/mL of commercial enzyme preparations (listed in the table below) at 25° C. The reactions were analyzed after 5 h or 24 h by removal of a 0.200 mL sample and mixing with an equivalent volume of 0.100M propionic acid (HPLC internal standard) in water. The resulting solution was filtered through a 10K molecular weight cut-off filter to remove the enzyme and the filtrate analyzed by high pressure liquid chromatography on a HPX-87H column (Bio-Rad, 30 cm×7.8 mm) to determine the percent conversion of each isomer of the diastereomeric mixture, and the diastereomeric excess of the N-(methoxycarbonyl)-cis-4-hydroxy-D-proline methyl ester.

[4] = Enzyme screens for resolution of diastereomeric mixture CHLP(MEMC)/THLP(MEMC) (Example 13); details: 0.050M each isomer, 5 h, 5.0 to 50 mg/mL enzyme, 25° C.
Method: as §1, with “solution” for “solution (1.0 mL)”, “N-(methoxycarbonyl)-cis-4-hydroxy-L-proline” for “N-(methoxycarbonyl)-cis-4-hydroxy-D-proline”, “5” for “5 h or 24”, “of” for “of each isomer of”

[5] = 19 mM each isomer, 25 mg/mL CALB, pH 5.0, 25° C., 28 h
[6] = 50 mM each isomer, 30 mg/mL CALB, pH 5.0, 25° C., 24 h
[7] = 0.10M 1:1 mixture, 0.20M succinate pH 6.0, 25° C., 5 h, approximately 1-3 mg/mL CALB
[8] = 100 mM racemate, 10 mg/mL CALB, 25° C., 24 h, pH 5.0
[9] = 100 mM racemate, 20 mg/mL CALB, 45° C., 6 h, pH 5.0
[10] = 200 mM racemate, 6.7 mg/mL CALB, 35° C., 29 h, pH 5.0
[11] = 300 mM racemate, 31 mg/mL CALB, 45° C., 23 h, pH 5.0
[12] = 200 mL, 100 mM racemate, 1.3325 g CALB, pH 5.0, 25° C., 24 h
[13] = immobilized CALB 2.5 g in 5.0 mL, 25 mM each isomer, pH 5.0, 25° C., 31 h
[14] = 0.100M potassium phosphate pH 7.0

## COC(=O)C1CC(=O)CN1C(=O)Cc1ccccc1 (racemic) [N-(2-phenylacetyl)-4-keto-D,L-proline methyl ester]
[1]; [5]
  conversion of the racemic mixture: 38%
  enantiomeric excess of the D-isomer: 55%

## COC(=O)C1CC(=O)CN1C(C)=O (racemic) [N-(acetyl)-4-keto-D,L-proline methyl ester]
[1]
  resolution with high enantioselectivity: could not be resolved with high enantioselectivity

## CCOC(=O)C1CC(=O)CN1C(=O)OCC (racemic) [N-(ethoxycarbonyl)-4-keto-D,L-proline ethyl ester]
[1]; [6]
  conversion of the racemic mixture: 51%
  enantiomeric excess of the D-isomer (KDP(EEEC)): 100%

## COC(=O)C1CC(OC)(OC)CN1C(=O)OC (racemic) [N-(methoxycarbonyl)-4,4-dimethoxy-D,L-proline methyl ester]
[1]
  resolution with high enantioselectivity: could not be resolved with high enantioselectivity

## COC(=O)C1CC(=O)CN1C(=O)OC (racemic) [N-(methoxycarbonyl)-4-keto-D,L-proline methyl ester]
[1]; [7]
  conversion: 51%
  ee (substrate) of KDP(MEMC): 95%
[1]; [8]
  ee D-isomer: 100%
  racemate conv.: 51%
[1]; 100 mM racemate, 20 mg/mL CALB, 15° C., 24 h, pH 5.0
  ee D-isomer: 100%
[1]; 100 mM racemate, 20 mg/mL CALB, 15° C., 24 h, sodium acetate pH 5.0
  racemate conv.: 51%
[1]; [9]
  ee D-isomer: 100%
  racemate conv.: 50%
[1]; 0.20M acetate buffer pH 5.0
  conversion: 51%
  ee (substrate) of the D-isomer: 100%
[1]; [10]
  ee D-isomer: 97%
  racemate conv.: 51%
[1]; [11]
  ee D-isomer: 99%
  racemate conv.: 48%
[1]; [12]
  conversion of the racemic mixture: 50%
  enantiomeric excess of the D-isomer: 96%
[1]; at 51% conversion, pH 5.0
  enantioselectivity (E): > 1000
[1]; at 51% conversion, pH 6.0
  calculated enantioselectivity (E): 81
[1]; [13]
  conversion of the racemic mixture: 41%
  enantiomeric excess of the D-isomer: 85%
[1]; pH 5.0
  reaction rate relative to the rate at pH 6.0: approximately 50%

## COC(=O)[C@H]1CC(=O)CN1C(=O)Cc1ccccc1 [N-(2-phenylacetyl)-4-keto-D-proline methyl ester]
[1]; 28 h
  isomer remaining: 97%

## COC(=O)[C@@H]1CC(=O)CN1C(=O)Cc1ccccc1 [N-(2-phenylacetyl)-4-keto-L-proline methyl ester]
[1]; 28 h
  isomer remaining: 28%

B1: protease, type VIII: commercial enzyme preparation, source Bacillus licheniformis (protein, UniProt P00780 106-379, looked up)
Subtilisin Carlsberg: AQTVPYGIPLIKADKVQAQGFKGANVKVAVLDTGIQASHPDLNVVGGASFVAGEAYNTDGNGHGTHVAGTVAALDNTTGVLGVAPSVSLYAVKVLNSSGSGSYSGIVSGIEWATTNGMDVINMSLGGASGSTAMKQAVDNAYAKGVVVVAAAGNSGSSGNTNTIGYPAKYDSVIAVGAVDSNSNRASFSSVGAELEVMAPGAGVYSTYPTNTYATLNGTSMASPHVAGAAALILSKHPNLSASQVRNRLSSTATYLGSSFYYGKGLINVEAAAQ
[2]; 0.20M sodium succinate pH 6.0, 5 h or 0.20M sodium acetate pH 5.0, 24 h
  conv. (percent conversion of the racemate): 32%
[2]; pH 6.0, 5 h or pH 5.0, 24 h
  % ee (enantiomeric excess of the D-isomer; L-isomer with porcine liver esterase): 23%
[3]; [14]
  conv. (percent conversion of the diastereomeric mixture): 16%
[3]; pH 7.0
  % de (diastereomeric excess of the D-isomer, CHDP(MEMC)): 16%
[4]; [14]
  conv. (percent conversion of the diastereomeric mixture): 4%
[4]; pH 7.0
  % de (diastereomeric excess of the cis-L-isomer): 6%
